Results as given in US11976083B2, “Inhibitors of peptidylarginine deiminases” (Gilead Sciences, Inc., priority 2020, dated 2024).

target: T1, human PAD4 (Homo sapiens, UniProt Q9UM07); assay: In vitro PAD4 BAEE biochemical assay; conditions: BAEE substrate 3 mM, 5 nM PAD4, 2 mM calcium chloride; geometric mean of multiple experiments
T1 construct: human PAD4 (NM_012387), A2-P663, was PCR amplified; His-SUMO (N, cleaved yes); made in house; host or cells: E. coli BL21(DE3)
Summary of the method: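 Assay was run at 25 °C using 3 mM BAEE and 5 nM human PAD4 after a 30 min compound preincubation; ammonia produced over 2 h was quantified by OPA-derived fluorescence. Full inhibition was defined by 50 µM BB-Cl-Amidine, and IC50 came from variable-slope nonlinear regression.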

T1 sequence (Q9UM07 2-663): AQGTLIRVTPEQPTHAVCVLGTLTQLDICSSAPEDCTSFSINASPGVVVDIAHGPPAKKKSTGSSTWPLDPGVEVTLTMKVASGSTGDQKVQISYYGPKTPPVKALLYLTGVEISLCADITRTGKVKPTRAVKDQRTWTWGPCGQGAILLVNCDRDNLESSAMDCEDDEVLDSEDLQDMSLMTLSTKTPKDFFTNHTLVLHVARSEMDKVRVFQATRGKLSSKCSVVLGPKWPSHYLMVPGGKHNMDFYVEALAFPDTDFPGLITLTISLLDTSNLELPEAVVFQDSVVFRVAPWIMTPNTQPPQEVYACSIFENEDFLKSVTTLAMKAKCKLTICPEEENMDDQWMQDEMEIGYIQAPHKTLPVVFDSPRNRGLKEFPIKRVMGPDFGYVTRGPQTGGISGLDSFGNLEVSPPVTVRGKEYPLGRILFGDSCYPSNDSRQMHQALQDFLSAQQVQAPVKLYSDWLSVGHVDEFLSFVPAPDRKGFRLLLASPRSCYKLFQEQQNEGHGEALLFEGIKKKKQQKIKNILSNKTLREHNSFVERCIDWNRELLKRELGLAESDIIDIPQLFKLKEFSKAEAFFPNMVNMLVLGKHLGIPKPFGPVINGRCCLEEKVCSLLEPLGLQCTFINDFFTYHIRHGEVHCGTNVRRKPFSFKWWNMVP

| IC50 [nM] | Structure (SMILES) |
| --- | --- |
| 137 | COc1cc(C(=O)N[C@@H]2CCCNC2)cc2nc(-c3cc4ccc5nc4n3CCCCCCC(C)(C)C(=O)N[C@@H]5C)n(C)c12 [Example 70, 7-methoxy-1-methyl-~{N}-[(3~{R})-3-piperidyl]-2-[(11~{R})-8,8,11-trimethyl-9-oxo-1,10,19-triazatricyclo[10.5.2.0^{15,18}]nonadeca-12(19),13,15(18),16-tetraen-17-yl]benzimidazole-5-carboxamide] |
| 338 | COc1cc(C(=O)N2CC[C@@H](OC)[C@@H](N)C2)cc2nc(-c3cc4ccc5nc4n3CCCCCCC(C)(C)C(=O)NC5C3CC3)n(C)c12 (stereo partly shown) [Example 778, 17-[5-[(3~{S),4~{R})-3-amino-4-methoxy-piperidine-1-carbonyl]-7-methoxy-1-methyl-benzimidazol-2-yl]-11-cyclopropyl-8,8-dimethyl-1,10,19-triazatricyclo [10.5.2.0^{15,18}]nonadeca-12,14,16,18-tetraen-9-one] |
| 27 | CO[C@@H]1CCN(C(=O)c2cc(F)c3c(c2)nc(-c2cc4ccc5nc4n2CCCCCc2cncc(Cl)c2C(=O)N[C@@H]5C)n3C2CC2)C[C@@H]1N [Example 661, (2~{R})-17-[5-[(3~{S),4~ {R})-3-amino-4-methoxy-piperidine-1-carbonyl]-1-cyclopropyl-7-fluoro-benzimidazol-2-yl]-6-chloro-2-methyl-3,8,16,22-tetrazatetracyclo[14.5.2.0^ {5,10).0^{19,23}] tricosa-1(22),5,7,9,17,19(23), 20-heptaen-4-one] |
| 83 | COc1cc(C(=O)N2CC[C@@H](OC)[C@@H](N)C2)cc2nc(-c3cc4ccc5nc4n3CCCCCc3cnccc3C(=O)N[C@@H]5C)n(C)c12 [Example 358, (2~{R})-17-[5-[(3~{S},4~{R})-3-amino-4-methoxy-piperidine-1-carbonyl]-7-methoxy-1-methyl-benzimidazol-2-yl]-2-methyl-3,8,16,22-tetrazatetracyclo[14.5.2.0^{5,10}.0^{19,23}] tricosa-1(22),5,7,9,17,19(23),20-heptaen-4-one] |
| 183 | COc1cc(C(=O)N2CC[C@@H](OC)[C@@H](N)C2)cc2nc(-c3cc4ccc5nc4n3C[C@H]3C[C@H]3CCC[C@@](C)(C(F)(F)F)C(=O)N[C@@H]5C)n(C)c12 [Example 372, (3~{S},5~{R},9~{R},12~{R})-18-[5-[(3~{S},4~{R})-3-amino-4-methoxy-piperidine-1-carbonyl]-7-methoxy-1-methyl-benzimidazol-2-yl]-9,12-dimethyl-9-(trifluoromethyl)-1,11,20-triazatetracyclo[11.5.2.0^{3,5}.0^{16,19}] icosa-13(20),14,16(19),17-tetraen-10-one] |
| 129 | COc1cc(C(=O)N2CC[C@@H](OC)[C@@H](N)C2)cc2nc(-c3cc4ccc5nc4n3CCCCCCc3nccnc3C(=O)N[C@@H]5C)n(C)c12 [Example 606, (2~{R})-18-[5-[(3~{S},4~ {R})-3-amino-4-methoxy-piperidine-1-carbonyl]-7-methoxy-1-methyl-benzimidazol-2-yl]-2-methyl-3,6,9,17,23-pentazatetracyclo[15.5.2.0^ {5,10}.0^{20,24}]tetracosa-1(23),5(10),6,8,18,20(24), 21-heptaen-4-one] |
| 122 | CO[C@@H]1CCN(C(=O)c2cc(F)c3c(c2)nc(-c2cc4ccc5nc4n2CCCCCC[C@](F)(c2cccc(Cl)n2)C(=O)N[C@@H]5C)n3C2CC2)C[C@@H]1N [Example 876, (8~{S},11~{R})-17-[5-[(3~{S}, 4~{R})-3-amino-4-methoxy-piperidine-1-carbonyl]-1-cyclopropyl-7-fluoro-benzimidazol-2-yl]-8-(6-chloro-2-pyridyl)-8-fluoro-11-methyl-1,10,19-triazatricyclo [10.5.2.0^{15,18}]nonadeca-12(19),13,15(18), 16-tetraen-9-one] |
| 58 | COc1cc(C(=O)N2CCC[C@@H](N)[C@H]2C(F)F)cc2nc(-c3cc4ccc5nc4n3CC(F)(F)CCC[C@@H]3C[C@H]3C(=O)N[C@@H]5C)n(C)c12 [Example 647, (2~{R},5~{R},7~{R})-14-[5-[(2~{S},3~{R})-3-amino-2-(difluoromethyl)piperidine-1-carbonyl]-7-methoxy-1-methyl-benzimidazol-2-yl]-11,11-difluoro-2-methyl-3,13,19-triazatetracyclo[11.5.2.0^ {5,7}.0^{16,20}] icosa-1(19),14,16(20), 17-tetraen-4-one] |
| 44 | COc1cc(C(=O)N2[C@H]3CC[C@@H]2[C@H](N)C3)cc2nc(-c3cc4ccc5nc4n3CCCCCCOCC(=O)N[C@@H]5C)c(C)n12 [Example 248, (12~{R})-18-[7-[(1~{R},2~{R},4~{S})-2-amino-7-azabicyclo[2.2.1]heptane-7-carbonyl]-5-methoxy-3-methyl-imidazo[1,2-a]pyridin-2-yl]-12-methyl-8-oxa-1,11,20-triazatricyclo[11.5.2.0^{16,19}]icosa-13(20),14,16(19),17-tetraen-10-one] |
| 121 | COc1cc(C(=O)N[C@H]2CNCC[C@@H]2F)cc2nc(-c3cc4ccc5nc4n3CCCCCc3nnn(C)c3C(=O)N[C@@H]5C)n(C)c12 [Example 183, 2-[(2~{R})-2,6-dimethyl-4-oxo-3,6,7,8,15,21-hexazatetracyclo[13.5.2.0^{5,9}.0^{18,22}]docosa-1(21),5(9),7,16,18(22),19-hexaen-16-yl]-~{N}-[(3~{S},4~{S})-4-fluoro-3-piperidyl]-7-methoxy-1-methyl-benzimidazole-5-carboxamide] |
| 19 | C[C@H]1NC(=O)[C@@H]2C[C@@]2(F)CCCCCn2c(-c3nc4cc(C(=O)N5C[C@H](N)[C@@H]6CC[C@H]5C6)cc(OC(F)(F)F)c4n3C)cc3ccc1nc32 [Example 715, (2~{R},5~{S},7~{S})-14-[5-[(1~{S},4~{R},5~{R})-4-amino-2-azabicyclo[3.2.1]octane-2-carbonyl]-1-methyl-7-(trifluoromethoxy)benzimidazol-2-yl]-7-fluoro-2-methyl-3,13,19-triazatetracyclo[11.5.2.0^ {5,7}.0^{16,20}]icosa-1(19), 14,16(20),17-tetraen-4-one] |
| 16 | C[C@@H]1c2ccc3cc(-c4nc5cc(C(=O)N6C[C@H](N)[C@@H]7CC[C@H]6C7)cc(F)c5n4C4CC4)n(c3n2)CC(F)(F)CCC[C@H]2C[C@H]2C(=O)N1C [Example 683, (2~{R},5~{R},7~{S})-14-[5-[(1~{S},4~{R},5~ {R})-4-amino-2-azabicyclo[3.2.1]octane-2-carbonyl]-1-cyclopropyl-7-fluoro-benzimidazol-2-yl]-11,11-difluoro-2,3-dimethyl-3,13,19-triazatetracyclo [11.5.2.0^{5,7}.0^{16,20}] icosa-1(19),14,16(20), 17-tetraen-4-one] |

| Structure (SMILES) | IC50 [nM] |
| --- | --- |
| COc1cc(C(=O)N2[C@H]3CC[C@@H]2[C@H](N)C3)cc2nc(-c3cc4ccc5cc4n3CCCCCOC(C)(C)C(=O)N[C@@H]5C)n(C)c12 [Example 222, (11~{R})-17-[5-[(1~{R},2~{R},4~{S})-2-amino-7-azabicyclo[2.2.1]heptane-7-carbonyl]-7-methoxy-1-methyl-benzimidazol-2-yl]-8,8,11-trimethyl-7-oxa-1,10-diazatricyclo[10.5.2.0^{15,18}]nonadeca-12(19),13,15(18),16-tetraen-9-one] | 64 |
